According to patent US11402382B2, “Diagnostic and therapeutic methods for cancer” (Genentech, Inc., priority 2017, dated 2022):

Experiments:
[1] = test system: previously untreated metastatic renal cell carcinoma (mRCC); experiment: IMmotion150: PFS and ORR in PD-L1 IHC and gene expression signature (Teff, Angio, Myeloid) subgroups; type: in vivo, human; settings: for PFS HR (95% CI) vs Sun: unstratified
Procedure: PD-L1 status on tumor-infiltrating immune cells (IC) was assessed in the phase II IMmotion150 study by immunohistochemistry (IHC) using the anti-human PD-L1 rabbit monoclonal antibody, SP142, and scored using an identical IHC scoring criteria (IC1/2/3=≥1% of tumor-infiltrating lymphocytes are PD-L1-positive; IC2/3=≥5% of tumor-infiltrating lymphocytes are PD-L1-positive) (n=297). PD-L1 status can be assessed as described in International Patent Application Publication Nos. WO 2016/183326 and WO 2016/196298. Mutation evaluations by whole exome sequencing (WES) and gene expression analyses by RNA-Seq (n=263) were also performed. For the gene expression analyses, gene expression levels were evaluated for T effector and IFNγ response (Teff) genes (CD8A, IFNG, PRF1, EOMES, and PD-L1), as well as for angiogenesis-related (Ang) genes (VEGFA, KDR, ESM1, PECAM1, ANGPTL4, and CD34), and myeloid inflammation-related (Myeloid) genes (IL6, CXCL1, CXCL2, CXCL3, CXCL8, and PTGS2). The Teff genes at low expression levels (i.e., below the median expression levels of the evaluated Teff genes; “Teff low”) and high expression levels (i.e., at or above the median expression levels of the evaluated Teff genes; “Teff high”) were evaluated in relation to progress-free survival (PFS) per RECIST v.1.1 via Independent Review Facility (IRF) assessment. The Ang genes at low expression levels (i.e., below the median expression levels of the evaluated Ang genes; “Ang low”) and high expression levels (i.e., at or above the median expression levels of the evaluated Ang genes; “Ang high”) were also evaluated in relation to PFS per RECIST v.1.1 via IRF assessment. The Myeloid genes at low expression levels (i.e., below the median expression levels of the evaluated Myeloid genes; “Myeloid low”) and high expression levels (i.e., at or above the median expression levels of the evaluated Myeloid genes; “Myeloid high”) were also evaluated in relation to PFS per RECIST v.1.1 via IRF assessment. To determine the median expression levels, first a Z-score was calculated for the normalized expression of all of the genes in a group. The median level of all the Z-scores across the dataset was used as a reference level to identify biomarker high versus biomarker low subgroups.
Tumor specimens from patients acquired <12 months prior to study treatment were required for enrollment in the study. Tissue was prospectively tested for PD-L1 expression on IC by a central laboratory using the SP142 IHC assay (VENTANA, Tucson, Ariz.). IC staining was defined as follows: any discernible PD-L1 staining of any intensity in IC covering <1% or absent, between ≥1% and <5%, between ≥5% and <10%, or ≥10% of tumor area.
Kaplan-Meier methodology was used to estimate the median PFS for each treatment arm, and Kaplan-Meier curves were produced. The primary analysis was triggered when 140 INV-PFS events occurred among patients treated with atezolizumab+bevacizumab and with sunitinib or among patients treated with atezolizumab alone and with sunitinib, whichever occurred later. […] The stratification factors included prior nephrectomy, tumor PD-L1 status, and MSKCC score and were determined based on data from the electronic case report form; if such data were missing, data collected by the IxRS at the time of randomization were used. Tumor specimens were prospectively tested for PD-L1 expression on ICs by a central laboratory using the SP142 IHC assay (VENTANA, Tucson, Ariz.). IC staining was defined as follows: any discernible PD-L1 staining of any intensity in IC covering <1% or absent (ICO), between ≥1% and <5% (IC1), between ≥5% and <10% (IC2), or ≥10% (IC3) of tumor area occupied by tumor cells, associated intratumoral, and contiguous peri-tumoral desmoplastic stroma.
Whole transcriptome profiles were generated for 263 patients using TRUSEQ® RNA Access technology (ILLUMINA®). RNAseq reads were first aligned to ribosomal RNA sequences to remove ribosomal reads. […]

[2] = IMmotion150 phase 2 randomized trial: safety (adverse events); settings: for Arthralgia / Constipation / Cough / Decreased appetite / Diarrhea / Dysgeusia / Epistaxis / Fatigue / Headache / Hypertension / Infections and infestations / Mucosal inflammation / Nausea / Palmar-plantar erythrodysesthesia syndrome / Proteinuria / Pruritus / Pyrexia / Rash / Stomatitis / Vomiting: AEs occurring in ≥20% of patients in any arm; for Treatment-related AE: all grade; for AEs leading to death: events: footnote a of Table 23;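 as to all read-outs here: Open-label multicenter randomized phase 2 trial with three treatment arms, safety set restricted to patients who actually received study drug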
Procedure: Study treatment consisted of atezolizumab 1200 mg fixed intravenous dose +bevacizumab 15 mg/kg every three weeks, atezolizumab 1200 mg fixed intravenous dose every three weeks, or sunitinib 50 mg/day orally for four weeks followed by two weeks of rest. On disease progression (as assessed by the investigator per RECIST v1.1), patients randomized to atezolizumab monotherapy or sunitinib had the option to cross over and receive the atezolizumab+bevacizumab combination in some regions (option was not available in Europe). In the absence of unacceptable toxicity, treatment with the combination continued until evidence of progressive disease. Where permitted, patients in the atezolizumab-containing arms could continue to be treated beyond disease progression per RECIST v1.1 until lack of clinical benefit; those in non-European nations could cross over to atezolizumab+bevacizumab therapy at any time after disease progression per RECIST v1.1, provided all eligibility criteria were met.

[3] = Teff^HighMyeloid^High vs Teff^HighMyeloid^Low
[4] = AE of special interest, All Grade
[5] = AE of special interest, Grade 3/4

Q: With `CCN(CC)CCNC(=O)c1c(C)[nH]c(/C=C2\C(=O)Nc3ccc(F)cc32)c1C` [Sunitinib, N-[2-(Diethylamino)ethyl]-5-[(Z)-(5-fluoro-2-oxo-1,2-dihydro-3H-indol-3-ylidene)methyl]-2,4-dimethyl-1H-pyrrole-3-carboxamide] as the compound, how does the ORR ([1]; Angio^High subgroup) read?
A: Its ORR is 45%.

Q: And the “PFS HR (95% CI), within arm analysis” value ([1]; Angio^High vs Angio^Low)?
A: The value was 0.31.

Q: And the ORR ([1]; Angio^Low subgroup)?
A: The ORR was 10%.

Q: What about the “PFS HR (95% CI), within arm analysis” value ([1]; Myeloid^High vs Myeloid^Low) of the same compound?
A: Its value is 0.82.

Q: What about the “PFS HR (95% CI), within arm analysis” value ([1]; Teff^High vs Teff^Low) of the same compound?
A: The value was 1.31.

Q: And the “PFS HR (95% CI), within arm analysis” value [1, 3]?
A: The value was 1.10.

Q: What about the “AEs leading to death” value ([2]; % of patients) of the same compound?
A: The value was “(2%)”.

Q: What about the “AEs leading to dose modification or interruption” value ([2]; % of patients) of the same compound?
A: The value was “(70%)”.

Q: And the “AEs leading to withdrawal from treatment” value ([2]; % of patients)?
A: Its value is “(10%)”.

Q: What about the “Grade 3/4 AEs, any cause” value ([2]; % of patients) of the same compound?
A: Its value is “(69%)”.

Q: And the “Treatment-related AEs leading to death” value ([2]; % of patients)?
A: Its value is “(2%)”.

Q: What about the “Treatment-related AEs leading to withdrawal from treatment” value ([2]; % of patients) of the same compound?
A: The value was “(9%)”.

Q: And the “Treatment-related grade 3/4 AEs” value ([2]; % of patients)?
A: Its value is “(57%)”.

Q: What about the “Treatment-related AEs leading to withdrawal from treatment” value ([2]; % of patients, listed as sunitinib) of the same compound?
A: Its value is 9%.

Q: What about the “Decreased blood cortisol/adrenal insufficiency” value [2, 4] of the same compound?
A: Its value is 0 n.

Q: What about the Pneumonitis [2, 4] of the same compound?
A: Its Pneumonitis is 0 n.

Q: And the Colitis [2, 5]?
A: The Colitis was 0 n.

Q: And the “Decreased blood cortisol/adrenal insufficiency” value [2, 5]?
A: Its value is 0 n.

Q: And the Pneumonitis [2, 5]?
A: Its Pneumonitis is 0 n.

Q: What about the TSH decreased/hypothyroidism [2, 5] of the same compound?
A: The TSH decreased/hypothyroidism was 0 n.

Q: And the TSH increased/hyperthyroidism [2, 5]?
A: Its TSH increased/hyperthyroidism is 0 n.

Q: And the Arthralgia [2]?
A: Its Arthralgia is “(18.0%)”.

Q: And the Constipation [2]?
A: Its Constipation is “(30.0%)”.

Q: And the Cough [2]?
A: The Cough was “(25.0%)”.

Q: What about the Decreased appetite [2] of the same compound?
A: The Decreased appetite was “(29.0%)”.

Q: What about the Diarrhea [2] of the same compound?
A: The Diarrhea was “(59.0%)”.

Q: What about the Dysgeusia [2] of the same compound?
A: Its Dysgeusia is “(30.0%)”.

Q: And the Epistaxis [2]?
A: Its Epistaxis is “(12.0%)”.

Q: What about the Fatigue [2] of the same compound?
A: The Fatigue was “(70.0%)”.

Q: And the Headache [2]?
A: The Headache was “(23.0%)”.

Q: And the Hypertension [2]?
A: The Hypertension was “(35.0%)”.

Q: What about the Infections and infestations [2] of the same compound?
A: Its Infections and infestations is “(32.0%)”.

Q: And the Mucosal inflammation [2]?
A: The Mucosal inflammation was “(33.0%)”.

Q: What about the Nausea [2] of the same compound?
A: The Nausea was “(45.0%)”.

Q: And the Palmar-plantar erythrodysesthesia syndrome [2]?
A: Its Palmar-plantar erythrodysesthesia syndrome is “(40.0%)”.

Q: What about the Proteinuria [2] of the same compound?
A: The Proteinuria was “(9.0%)”.

Q: What about the Pruritus [2] of the same compound?
A: Its Pruritus is “(10.0%)”.

Q: And the Pyrexia [2]?
A: Its Pyrexia is “(12.0%)”.

Q: And the Rash [2]?
A: The Rash was “(13.0%)”.

Q: What about the Stomatitis [2] of the same compound?
A: The Stomatitis was “(25.0%)”.

Q: What about the Vomiting [2] of the same compound?
A: Its Vomiting is “(20.0%)”.

Q: And the Arthralgia ([2]; number of patients)?
A: Its Arthralgia is 18.

Q: What about the Constipation ([2]; number of patients) of the same compound?
A: The Constipation was 30.

Q: What about the Cough ([2]; number of patients) of the same compound?
A: The Cough was 25.

Q: And the Decreased appetite ([2]; number of patients)?
A: The Decreased appetite was 29.

Q: What about the Diarrhea ([2]; number of patients) of the same compound?
A: The Diarrhea was 59.

Q: And the Dysgeusia ([2]; number of patients)?
A: Its Dysgeusia is 30.

Q: And the Epistaxis ([2]; number of patients)?
A: Its Epistaxis is 12.

Q: What about the Fatigue ([2]; number of patients) of the same compound?
A: Its Fatigue is 70.

Q: And the Headache ([2]; number of patients)?
A: The Headache was 23.

Q: What about the Hypertension ([2]; number of patients) of the same compound?
A: Its Hypertension is 35.

Q: And the Infections and infestations ([2]; number of patients)?
A: Its Infections and infestations is 32.

Q: And the Mucosal inflammation ([2]; number of patients)?
A: The Mucosal inflammation was 33.

Q: And the Nausea ([2]; number of patients)?
A: The Nausea was 45.

Q: What about the Palmar-plantar erythrodysesthesia syndrome ([2]; number of patients) of the same compound?
A: Its Palmar-plantar erythrodysesthesia syndrome is 40.

Q: And the Proteinuria ([2]; number of patients)?
A: Its Proteinuria is 9.

Q: What about the Pruritus ([2]; number of patients) of the same compound?
A: Its Pruritus is 10.

Q: And the Pyrexia ([2]; number of patients)?
A: The Pyrexia was 12.

Q: And the Rash ([2]; number of patients)?
A: Its Rash is 13.

Q: And the Stomatitis ([2]; number of patients)?
A: The Stomatitis was 25.

Q: What about the Vomiting ([2]; number of patients) of the same compound?
A: The Vomiting was 20.

Q: And the “Treatment-related AE” value ([2]; % of patients)?
A: The value was “(96%)”.

Q: What about the “Treatment-related AE” value ([2]; number of patients) of the same compound?
A: The value was 96 n.

Q: What about the “AEs leading to death: events” value [2] of the same compound?
A: Its value is “sudden death (related), intestinal hemorrhage (related)”.

Q: And the “related AE leading to treatment discontinuation: increased blood creatinine” value ([2]; in vivo)?
A: The value was 2%.

Q: What about the “related AE leading to treatment discontinuation: palmar-plantar erythrodysesthesia syndrome” value ([2]; in vivo) of the same compound?
A: Its value is 2%.

Q: And the “AEs leading to death” value ([2]; number of patients)?
A: The value was 2 n.

Q: And the “AEs leading to dose modification or interruption” value ([2]; number of patients)?
A: The value was 70 n.

Q: What about the “AEs leading to withdrawal from treatment” value ([2]; number of patients) of the same compound?
A: The value was 10 n.

Q: And the “All-grade AEs, any cause” value ([2]; number of patients)?
A: The value was 99 n.

Q: What about the “Grade 3/4 AEs, any cause” value ([2]; number of patients) of the same compound?
A: Its value is 69 n.

Q: And the “Treatment-related AEs leading to death” value ([2]; number of patients)?
A: The value was 2 n.

Q: And the “Treatment-related AEs leading to withdrawal from treatment” value ([2]; number of patients)?
A: Its value is 9 n.

Q: And the “Treatment-related grade 3/4 AEs” value ([2]; number of patients)?
A: The value was 57 n.

Q: What does the source list for “Atezo: anti-PD-L1 antibody atezolizumab (CAS Registry Number: 1422185-06-5), Genentech, also known as MPDL3280A”?
A: PFS HR (95% CI) vs Sunitinib ([1]; Ang high (Angio^High) subgroup): 1.46; PFS HR (95% CI) vs Sunitinib ([1]; Ang low (Angio^Low) subgroup): 0.75; PFS HR (95% CI), within arm analysis ([1]; Angio^High vs Angio^Low): 0.74; PFS HR (95% CI) vs Sunitinib ([1]; Myeloid^High subgroup): 2.03; PFS HR (95% CI), within arm analysis ([1]; Myeloid^High vs Myeloid^Low): 2.98; PFS HR (95% CI) vs Sunitinib ([1]; Myeloid^Low subgroup): 0.53; PFS HR (95% CI) vs Sun ([1]; PD-L1 IHC IC1/2/3): 0.97; PFS HR (95% CI) vs Sun ([1]; PD-L1 IHC IC2/3): 0.54; PFS HR (95% CI) vs Sunitinib ([1]; Teff high subgroup (at or above median)): 0.85; PFS HR (95% CI) vs Sunitinib ([1]; Teff low subgroup (below median)): 1.33; PFS HR (95% CI) vs Sunitinib ([1]; Teff^High Myeloid^High subgroup): 1.81; PFS HR (95% CI) vs Sunitinib ([1]; Teff^High Myeloid^Low subgroup): 0.47; PFS HR (95% CI), within arm analysis ([1]; Teff^High vs Teff^Low): 0.83; PFS HR (95% CI), within arm analysis [1, 3]: 3.82; AEs leading to death ([2]; % of patients): (2%); AEs leading to death: events [2]: hematophagic hitiocytosis, lower respiratory tract infection; AEs leading to death ([2]; number of patients): 2 n; Treatment-related AEs leading to death ([2]; number of patients): 0 n
